Experimental data reported in patent US9808445B2, “Factor IXa inhibitors” (Merck Sharp & Dohme Corp., priority 2014, dated 2017).
Structures can show the parent of a compound that is named as a salt. Values belong to the molecule of their own block, whether it stands above or below them.

Target: human factor IXa (Homo sapiens (Human), UniProt P00740)
Experiment: Determination of inhibitory activity against factor IXa (fluorogenic substrate SPECTROFLUOR FIXa)
Assay type: biochemical
Conditions: Factor IXa enzyme assay human
Protocol: Inhibitory activity against factor IXa was tested using the substrate SPECTROFLUOR FIXa (american diagnostica inc.; 500 West Avenue, Stamford, Conn. 06902 USA; Pr. No. 299F) and human factor IXa (american diagnostica inc.; Pr. No. 449b). Test substances were dissolved in buffer A (50 mM α,α,α-tris (hydroxymethyl) methylamine (Tris), 100 mM NaCl, 5 mM CaCl2, 15% (v/v) ethylene glycol, pH 8.0) were mixed with factor IXa (0.1 μg/ml final concentration). The enzyme reaction was started by addition of SPECTROFLUOR FIXa (100 μM final concentration). After incubation for 60 minutes at room temperature, the reaction was stopped by the addition of 20% (v/v) acetic acid solution, and then the fluorescence value was measured (Excitation Wavelength: 355 nm, Emission Wavelength; 460 nm) in a microtiter plate reader (ARVO 1420 Multilabel Counter; PerkinElmer).
The IC50 was calculated from a dilution series of the test substance with the aid of the software, Symyx Assay Explorer (Symyx Technologies, Inc.).

Chain of human factor IXa (P00740 227-461): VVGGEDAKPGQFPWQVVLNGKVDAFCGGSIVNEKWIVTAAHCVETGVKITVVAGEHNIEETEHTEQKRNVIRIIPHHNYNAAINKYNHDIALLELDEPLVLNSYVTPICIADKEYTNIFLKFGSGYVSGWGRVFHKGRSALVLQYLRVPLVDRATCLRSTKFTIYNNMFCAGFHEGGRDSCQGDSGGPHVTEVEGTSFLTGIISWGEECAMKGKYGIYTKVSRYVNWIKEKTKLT
Chain of human factor IXa (P00740 47-191 partner): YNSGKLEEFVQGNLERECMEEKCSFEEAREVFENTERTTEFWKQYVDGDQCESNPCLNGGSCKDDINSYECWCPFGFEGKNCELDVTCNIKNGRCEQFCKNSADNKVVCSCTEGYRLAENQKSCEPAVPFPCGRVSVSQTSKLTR

Structure (SMILES): Cc1ncn(-c2ccc(C(=O)NC3C4CCC3N(c3ncc(Cl)c5c(N)noc35)C4)c(Cl)c2)n1 (single isomer, unassigned) [Example 7.2, N-((1S*,4S*,7R*)-2-(3-Amino-4-chloroisoxazolo[5,4-c]pyridin-7-yl)-2-azabicyclo[2.2.1]heptan-7-yl)-2-chloro-4-(3-methyl-1H-1,2,4-triazol-1-yl)benzamide]
IC50: 100 to 1000 nM

Structure (SMILES): Nc1noc2c(N3CC4CCC3C4NC(=O)c3ccc(-n4cncn4)cc3Cl)ncc(Cl)c12 (single isomer, unassigned) [Example 8.2, N-((1S*,4S*,7R*)-2-(3-Amino-4-chloroisoxazolo[5,4-c]pyridin-7-yl)-2-azabicyclo[2.2.1]heptan-7-yl)-2-chloro-4-(1H-1,2,4-triazol-1-yl)benzamide]
IC50: 100 to 1000 nM

Structure (SMILES): Cc1cc2c(N)noc2c(N2CC3CCC2C3NC(=O)c2ccc(-n3cnc(C)n3)cc2Cl)n1 (single isomer, unassigned) [Example 11.1, N-((1S*,4S*,7R*)-2-(3-Amino-5-methylisoxazolo[5,4-c]pyridin-7-yl)-2-azabicyclo[2.2.1]heptan-7-yl)-2-chloro-4-(3-methyl-1H-1,2,4-triazol-1-yl)benzamide]
IC50: 100 to 1000 nM

Structure (SMILES): Cc1ncn(-c2cnc(C(=O)N[C@@H]3[C@H]4CC[C@@H]3N(c3ncc(Cl)c5c(N)noc35)C4)c(Cl)c2)n1 (single isomer, unassigned) [Example 29, N-((1S*,4S*,7R*)-2-(3-Amino-4-chloroisoxazolo[5,4-c]pyridin-7-yl)-2-azabicyclo[2.2.1]heptan-7-yl)-3-chloro-5-(3-methyl-1H-1,2,4-triazol-1-yl)picolinamide]
IC50: ≤ 100 nM

Next, values leading:

IC50: ≤ 100 nM
Structure (SMILES): Cc1cc2c(N)noc2c(N2C[C@@H]3CC[C@H]2[C@@H]3NC(=O)c2ccc(-c3cnc(=O)n(C)c3)cc2Cl)n1 (relative stereo) [Example 27, N-((1S*,4S*,7R*)-2-(3-Amino-5-methylisoxazolo[5,4-c]pyridin-7-yl)-2-azabicyclo[2.2.1]heptan-7-yl)-2-chloro-4-(1-methyl-2-oxo-1,2-dihydropyrimidin-5-yl)benzamide TFA salt]

IC50: ≤ 100 nM
Structure (SMILES): Cn1ncn(-c2ccc(C(=O)N[C@@H]3[C@H]4CC[C@@H]3N(c3ncc(Cl)c5c(N)noc35)C4)c(Cl)c2)c1=O (relative stereo) [Example 28, N-((1S*,4S*,7R*)-2-(3-Amino-4-chloroisoxazolo[5,4-c]pyridin-7-yl)-2-azabicyclo[2.2.1]heptan-7-yl)-2-chloro-4-(1-methyl-5-oxo-1,5-dihydro-4H-1,2,4-triazol-4-yl)benzamide]

IC50: ≤ 100 nM
Structure (SMILES): Cc1ncn(-c2ccc(C(=O)NC3C4CCC3N(c3ncc(Cl)c5c(N)noc35)C4)c(Cl)c2)n1 (single isomer, unassigned) [Example 7.1, N-((1S*,4S*,7R*)-2-(3-Amino-4-chloroisoxazolo[5,4-c]pyridin-7-yl)-2-azabicyclo[2.2.1]heptan-7-yl)-2-chloro-4-(3-methyl-1H-1,2,4-triazol-1-yl)benzamide]

IC50: ≤ 100 nM
Structure (SMILES): Nc1noc2c(N3CC4CCC3C4NC(=O)c3ccc(-n4cncn4)cc3Cl)ncc(Cl)c12 (single isomer, unassigned) [Example 8.1, N-((1S*,4S*,7R*)-2-(3-Amino-4-chloroisoxazolo[5,4-c]pyridin-7-yl)-2-azabicyclo[2.2.1]heptan-7-yl)-2-chloro-4-(1H-1,2,4-triazol-1-yl)benzamide]

IC50: ≤ 100 nM
Structure (SMILES): Cc1cc2c(N)noc2c(N2CC3CCC2C3NC(=O)c2ccc(-n3cnc(C)n3)cc2Cl)n1 (single isomer, unassigned) [Example 11.2, N-((1S*,4S*,7R*)-2-(3-Amino-5-methylisoxazolo[5,4-c]pyridin-7-yl)-2-azabicyclo[2.2.1]heptan-7-yl)-2-chloro-4-(3-methyl-1H-1,2,4-triazol-1-yl)benzamide]
